Consider 22 molecules from US20160251341A1, “SUBSTITUTED TRIAZOLE COMPOUNDS AS SERINE PROTEASE INHIBITORS” (Verseon Corporation, priority 2015, published 2016).

The first data set addresses T1, Human thrombin (Homo sapiens, UniProt P00734).
T1 construct: purchased Haematologic Technologies Inc
Nature of the data set: Thrombin protease inhibition assay (chromogenic substrate S-2238). It counts as biochemical. To be noted: 3 nM human thrombin, 125 μM S-2238, 10 min pre-incubation, RT. The procedure: The thrombin activity reported herein (e.g., Table A) was obtained as follows. Human thrombin was obtained from Haematologic Technologies Inc. The chromogenic substrate S-2238 was obtained from DiaPharma. Thrombin was assayed in buffer containing 0.05 M Tris (pH 7.4), 0.015 M NaCl and 0.01% PEG-8000. The final concentration of enzyme used was 3 nM thrombin. The final concentration of substrate used was 125 μM S-2238 for thrombin. All assays were performed in 96-well microtiter plates at room temperature (RT). The enzyme and inhibitor were pre-incubated for 10 minutes then substrate was added and read at 405 nm in a SpectraMax Plus Spectrophotometer (Molecular Devices). Inhibitor IC50 values were determined by adding test compound as ten point, three-fold serial dilutions in buffer solution, as known in the art. The plate was read at 10 minutes after substrate addition. The IC50 was calculated by plotting the percent (%) inhibition against compound concentration and fitting the data to a constrained four parameter sigmoidal curve, as known in the art.
Turning to `COC1CCCCC1c1n[nH]c(NCc2ccc(Cl)s2)n1` (stereo not drawn) [Entry 56, N-[(5-chlorothiophen-2-yl)methyl]-3-(2-methoxycyclohexyl)-1H-1,2,4-triazol-5-amine], the IC50 was in the range of 1 to 10 µM.
On the same count and under the same terms, the same measure for `O=C(c1ccsc1)n1nc(C2CCOCC2)nc1NCc1ccc(Cl)s1` [Entry 57, N-[(5-chlorothiophen-2-yl)methyl]-3-(oxan-4-yl)-1-(thiophene-3-carbonyl)-1H-1,2,4-triazol-5-amine]: at most 0.1 µM; for `Clc1ccc(CNc2nc(C3CCOCC3)n[nH]2)s1` [Entry 58, N-[(5-chlorothiophen-2-yl)methyl]-3-(oxan-4-yl)-1H-1,2,4-triazol-5-amine]: at least 100 µM; for `O=C(c1ccsc1)n1nc(C2CCCO2)nc1NCc1ccc(Cl)s1` (stereo not drawn) [Entry 59, N-[(5-chlorothiophen-2-yl)methyl]-3-(oxolan-2-yl)-1-(thiophene-3-carbonyl)-1H-1,2,4-triazol-5-amine]: at most 0.1 µM.
The molecule `Clc1ccc(CNc2nc(C3CCCO3)n[nH]2)s1` (stereo not drawn) [Entry 60, N-[(5-chlorothiophen-2-yl)methyl]-3-(oxolan-2-yl)-1H-1,2,4-triazol-5-amine] displayed a half-inhibitory concentration (IC50) of at least 100 µM.
Still for that read-out and setting: the same measure for `O=C(c1ccsc1)n1nc(C2CCOC2)nc1NCc1ccc(Cl)s1` (stereo not drawn) [Entry 61, N-[(5-chlorothiophen-2-yl)methyl]-3-(oxolan-3-yl)-1-(thiophene-3-carbonyl)-1H-1,2,4-triazol-5-amine]: at most 0.1 µM; for `Clc1ccc(CNc2nc(C3CCOC3)n[nH]2)s1` (stereo not drawn) [Entry 62, N-[(5-chlorothiophen-2-yl)methyl]-3-(oxolan-3-yl)-1H-1,2,4-triazol-5-amine]: at least 100 µM.
For `COc1ccccc1C(=O)n1nc(C2CN(S(=O)(=O)C3CCCCC3)C2)nc1NCc1ccc(Cl)s1` [Entry 63, N-[(5-chlorothiophen-2-yl)methyl]-3-[1-(cyclohexanesulfonyl)azetidin-3-yl]-1-(2-methoxybenzoyl)-1H-1,2,4-triazol-5-amine], the half-inhibitory concentration (IC50) was at most 0.1 µM.
The molecule `COc1ccccc1C(=O)n1nc(C2CCN(S(=O)(=O)C3CCCCC3)CC2)nc1NCc1ccc(Cl)s1` [Entry 64, N-[(5-chlorothiophen-2-yl)methyl]-3-[1-(cyclohexanesulfonyl)piperidin-4-yl]-1-(2-methoxybenzoyl)-1H-1,2,4-triazol-5-amine] yielded an IC50 of at most 0.1 µM.
`COc1ccccc1C(=O)n1nc(C2CCOCC2)nc1NCc1ccccc1` [Entry 65, N-benzyl-1-(2-methoxybenzoyl)-3-(oxan-4-yl)-1H-1,2,4-triazol-5-amine] had an IC50 of 1 to 10 µM.
For `c1ccc(CNc2nc(C3CCOCC3)n[nH]2)cc1` [Entry 66, N-benzyl-3-(oxan-4-yl)-1H-1,2,4-triazol-5-amine], the IC50 is at least 100 µM.
`CC(C)(C)OC(=O)N1CCCC1c1n[nH]c(N)n1` (stereo not drawn) [Entry 67, tert-butyl 2-(5-amino-1H-1,2,4-triazol-3-yl)pyrrolidine-1-carboxylate] returned an IC50 of at least 100 µM.
The molecule `COc1ccccc1C(=O)n1nc(C2CCCN2C(=O)OC(C)(C)C)nc1NCc1ccc(Cl)s1` (stereo not drawn) [Entry 68, tert-butyl 2-(5-[(5-chlorothiophen-2-yl)methyl]amino-1-(2-methoxybenzoyl)-1H-1,2,4-triazol-3-yl)pyrrolidine-1-carboxylate] gave an IC50 of 0.1 to 1 µM.
With `CC(C)(C)OC(=O)N1CCCC1c1n[nH]c(NCc2ccc(Cl)s2)n1` (stereo not drawn) [Entry 69, tert-butyl 2-(5-[(5-chlorothiophen-2-yl)methyl]amino-1H-1,2,4-triazol-3-yl)pyrrolidine-1-carboxylate], the IC50 was at least 100 µM.
On to `CC(C)(C)OC(=O)N1CC(c2n[nH]c(N)n2)C1` [Entry 70, tert-butyl 3-(5-amino-1H-1,2,4-triazol-3-yl)azetidine-1-carboxylate], for which the IC50 is at least 100 µM.
On the same count and under the same terms, next, `COc1ccccc1C(=O)n1nc(C2CN(C(=O)OC(C)(C)C)C2)nc1NCc1ccc(Cl)s1` [Entry 71, tert-butyl 3-(5-[(5-chlorothiophen-2-yl)methyl]amino-1-(2-methoxybenzoyl)-1H-1,2,4-triazol-3-yl)azetidine-1-carboxylate]: at most 0.1 µM; `CC(C)(C)OC(=O)N1CC(c2n[nH]c(NCc3ccc(Cl)s3)n2)C1` [Entry 72, tert-butyl 3-(5-[(5-chlorothiophen-2-yl)methyl]amino-1H-1,2,4-triazol-3-yl)azetidine-1-carboxylate]: at least 100 µM.
The same measure, in the same setting: the same measure for `CC(C)(C)OC(=O)N1CCC(c2n[nH]c(N)n2)CC1` [Entry 73, tert-butyl 4-(5-amino-1H-1,2,4-triazol-3-yl)piperidine-1-carboxylate]: at least 100 µM; for `COc1ccccc1C(=O)n1nc(C2CCN(C(=O)OC(C)(C)C)CC2)nc1NCc1ccc(Cl)s1` [Entry 74, tert-butyl 4-(5-[(5-chlorothiophen-2-yl)methyl]amino-1-(2-methoxybenzoyl)-1H-1,2,4-triazol-3-yl)piperidine-1-carboxylate]: at most 0.1 µM; for `CC(C)(C)OC(=O)N1CCC(c2n[nH]c(NCc3ccc(Cl)s3)n2)CC1` [Entry 75, tert-butyl 4-(5-[(5-chlorothiophen-2-yl)methyl]amino-1H-1,2,4-triazol-3-yl)piperidine-1-carboxylate]: at least 100 µM.
Consider `COc1ccccc1C(=O)n1nc(C2CCN(C(=O)OC(C)(C)C)CC2)nc1NCc1ccccc1` [Entry 76, tert-butyl 4-[5-(benzylamino)-1-(2-methoxybenzoyl)-1H-1,2,4-triazol-3-yl]piperidine-1-carboxylate], for which the half-maximal inhibitory concentration (IC50) is at most 0.1 µM.

The subject of a further data set is malignant breast tumors.
Assay: not given
As to conditions: at 4 weeks, treated mice; cited from earlier work.
For `CCCCCCOC(=O)NC(=N)c1ccc(NCc2nc3cc(C(=O)N(CCC(=O)OCC)c4ccccn4)ccc3n2C)cc1` [dabigatran etexilate], the “reduction in tumor volume” value was 50% and the weight loss entry is “no weight loss”.

Still in this data set, the particulars now being: treated mice; cited from earlier work.
In the case of `CCCCCCOC(=O)NC(=N)c1ccc(NCc2nc3cc(C(=O)N(CCC(=O)OCC)c4ccccn4)ccc3n2C)cc1` [dabigatran etexilate], the “reduced tumor cells in the blood and liver micrometastases” value is given as 50-60%.
